In ChEMBL document CHEMBL3044955, “Inhibitory activity against tobacco mosaic virus (TMV) replication of pinoresinol and syringaresinol lignans and their glycosides from the root of Rhus javanica var. roxburghiana” (J Agric Food Chem, 2007):
Converted amounts (≈) assume the structure as drawn.

Legend:
[1] = system: Tobacco mosaic virus; test: Inhibition of Tobacco mosaic virus (TMV) replication using Nicotiana tabacum cv. K326; type: functional, organism-based
[2] = system: Tobacco mosaic virus; test: Inhibition of Tobacco mosaic virus (TMV) replication using Nicotiana tabacum cv. K326 at 0.2 mg/mL; type: functional

Which results are given for `COc1cc(/C=C/C(=O)OC[C@H]2O[C@@H](Oc3ccc([C@@H]4OC[C@@H]5[C@H]4CO[C@H]5c4ccc(O)c(OC)c4)cc3OC)[C@H](O)[C@@H](OC(=O)/C=C/c3ccc(O)c(OC)c3)[C@@H]2O)ccc1O` [PINORESINOL-4'-O-[3',6'-O-(E)-DIFERULOYL]-BETA-D-GLUCOPYRANOSIDE]?
EC50 [1]: 240 µg/mL (≈ 275 µM); inhibition at 200 µg/mL [2]: 47.7%

With `COc1cc(/C=C/C(=O)OC[C@H]2O[C@@H](Oc3ccc([C@@H]4OC[C@@H]5[C@H]4CO[C@H]5c4ccc(O)c(OC)c4)cc3OC)[C@H](O)[C@@H](O)[C@@H]2OC(=O)/C=C/c2ccc(O)c(OC)c2)ccc1O` [PINORESINOL-4'-O-[4',6'-O-(E)-DIFERULOYL]-BETA-D-GLUCOPYRANOSIDE] as the compound, how does the EC50 [1] read?
The EC50 was 190 µg/mL (≈ 218 µM).

What about the inhibition at 200 µg/mL [2] of the same compound?
The inhibition at 200 µg/mL was 50.3%.

How did the inhibition at 200 µg/mL [2] turn out when `COc1cc(/C=C/C(=O)OC[C@H]2O[C@@H](Oc3ccc([C@@H]4OC[C@@H]5[C@H]4CO[C@H]5c4ccc(O)c(OC)c4)cc3OC)[C@H](O)[C@@H](O)[C@@H]2O)ccc1O` [PINORESINOL-4'-O-[6'-O-(E)-FERULOYL]-BETA-D-GLUCOPYRANOSIDE] was run?
Its inhibition at 200 µg/mL is 34.3%.

With `COc1cc(/C=C/C(=O)OC[C@H]2O[C@@H](Oc3c(OC)cc([C@@H]4OC[C@@H]5[C@H]4CO[C@H]5c4cc(OC)c(O)c(OC)c4)cc3OC)[C@H](O)[C@@H](O)[C@@H]2OC(=O)/C=C/c2ccc(O)c(OC)c2)ccc1O` [SYRINGARESINOL-4'-O-[4',6'-O-(E)-DIFERULOYL]-BETA-D-GLUCOPYRANOSIDE] as the compound, how does the EC50 [1] read?
Its EC50 is 180 µg/mL (≈ 193 µM).

What about the inhibition at 200 µg/mL [2] of the same compound?
Its inhibition at 200 µg/mL is 56.1%.
